Assay results from patent publication US20120107305A1, “Combination Therapy” (priority 2006, published 2012).

Assays:
VEGF RTK = details: cited from earlier work
tumour models = details: once-daily oral administration; range of models; cited from earlier work
[1] = system: A431 human tumour xenografts; assay: A431 human vulval epidermoid carcinoma xenograft model; format: in vivo, female athymic mice (Swiss nu/nu); details: 20 days after randomisation; ZD6474 25 mg/kg/day p.o. once daily, bevacizumab 0.5 mg/kg i.p. twice a week; nude mice
Protocol: Experiments were conducted on female athymic mice (Swiss nu/nu genotype, ≧6 weeks of age). A431 human tumour xenografts were established in the experimental mice by injecting 1×10^7 cells per mouse, mixed in a ratio of 1:1 with Matrigel, subcutaneously in the dorsal flank in a volume of 100 μl. Tumour volumes were assessed at least twice weekly by bilateral Vernier calliper measurements. Mice were randomised into treatment groups when the tumour volume reached 0.2-0.4 cm^3 (day 0, this was after 7 days in Example 1 below).
Tumour growth inhibition from the start of treatment was assessed by comparison of the differences in tumour volume (median and geometric mean) between control and treated groups.
Control animals (Group I) received drug vehicles alone.

Compound	Inhibition of VEGF RTK (VEGF RTK)	Anti-tumour activity (tumour models)	A431 tumor volume, Geometric mean [1]
COc1cc2c(Nc3ccc(Br)cc3F)ncnc2cc1OCC1CCN(C)CC1 [ZD6474, 4-(4-bromo-2-fluoroanilino)-6-methoxy-7-(1-methylpiperidin-4-ylmethoxy)quinazoline]	potent inhibitor	broad-spectrum anti-tumour activity	0.149 cm^3
Bevacizumab: recombinant humanised monoclonal antibody to the vascular endothelial growth factor ligand VEGF-A	–	–	0.553 cm^3
